Experimental data: US8293768B2, “Organic compounds” (Novartis AG, priority 2006, dated 2012)

SMILES | melting point
Cc1cc(N2CCN(CC(=O)c3ccccc3)C2=O)sc1C(=O)NCc1cccnc1 [Example 55.1, 3-methyl-5-(2-oxo-3-(2-oxo-2-phenylethyl)imidazolidin-1-yl)-N-(pyridin-3-ylmethyl)thiophene-2-carboxamide] | 174 to 176 °C
Cc1nc(N2CCCN(CC3CC3)C2=O)sc1C(=O)NCc1cccnc1 [Example 32.26, 2-(3-(cyclopropylmethyl)-2-oxotetrahydropyrimidin-1(2H)-yl)-4-methyl-N-(pyridin-3-ylmethyl)thiazole-5-carboxamide] | 142 to 145 °C
Cc1nc(N2CCN(Cc3ccc(OC(F)(F)F)cc3)C2=O)sc1C(=O)NCCc1ccccc1 [Example 9.31, 4-methyl-2-(2-oxo-3-(4-(trifluoromethoxy)benzyl)imidazolidin-1-yl)-N-phenethylthiazole-5-carboxamide] | 184 to 185 °C
O=C(O)c1cnc(N2CCN(CC3CC3)C2=O)s1 [Example 25.1, 2-(3-(cyclopropylmethyl)-2-oxoimidazolidin-1-yl)thiazole-5-carboxylic acid] | 250 to 252 °C
Cc1nc(N2CCN(CC3CCC3)C2=O)sc1C(=O)NCc1cccnc1 [Example 9.37, 2-(3-(cyclobutylmethyl)-2-oxoimidazolidin-1-yl)-4-methyl-N-(pyridin-3-ylmethyl)thiazole-5-carboxamide] | 136 to 137 °C
Cc1cc(N2CCN(Cc3ccccc3)C2=O)sc1C(=O)NCc1cccnc1 [Example 15.1, 5-(3-benzyl-2-oxoimidazolidin-1-yl)-3-methyl-N-(pyridin-3-ylmethyl)thiophene-2-carboxamide] | 130 to 131 °C
Cc1cc(N2CCN(Cc3ccc(C(F)(F)F)cc3)C2=O)sc1C(=O)NCc1cccnc1 [Example 15, 3-methyl-5-(2-oxo-3-(4-(trifluoromethyl)benzyl)imidazolidin-1-yl)-N-(pyridin-3-ylmethyl)thiophene-2-carboxamide] | 102 to 104 °C
Cc1nc(N2CCN(Cc3ccc(C(F)(F)F)cc3)C2=O)sc1-c1cc[nH]n1 [Example 38, 1-(4-methyl-5-(1H-pyrazol-3-yl)thiazol-2-yl)-3-(4-(trifluoromethyl)-benzyl)imidazolidin-2-one] | 212 to 213 °C
Cc1nc(N2CCN(Cc3ccc(C(F)(F)F)cc3)C2=O)sc1-c1cnco1 [Example 43, 1-(4-methyl-5-(oxazol-5-yl)thiazol-2-yl)-3-(4-(trifluoromethyl)benzyl)-imidazolidin-2-one] | 160 to 162 °C
Cc1nc(N2CCN(Cc3ccc(F)cc3)C2=O)sc1C(=O)NCc1ccccc1 [Example 9.21, N-benzyl-2-(3-(4-fluorobenzyl)-2-oxoimidazolidin-1-yl)-4-methylthiazole-5-carboxamide] | 192 to 193 °C
Cc1nc(N2CCN(Cc3ncoc3-c3ccccc3)C2=O)sc1C(=O)NCc1cccnc1 [Example 32.5, 4-methyl-2-(2-oxo-3-((5-phenyloxazol-4-yl)methyl)imidazolidin-1-yl)-N-(pyridin-3-ylmethyl)thiazole-5-carboxamide] | 78 to 81 °C
CCOC(=O)c1sc(N2CCN(Cc3ccc(Cl)cc3)C2=O)nc1C [Example 10.3, ethyl 2-(3-(4-chlorobenzyl)-2-oxoimidazolidin-1-yl)-4-methylthiazole-5-carboxylate] | 117 to 119 °C
Cc1nc(-n2cnn(Cc3ccc(OC(F)F)cc3)c2=O)sc1C(=O)NCc1cccnc1 [Example 21.1, 2-(1-(4-(difluoromethoxy)benzyl)-5-oxo-1H-1,2,4-triazol-4(5H)-yl)-4-methyl-N-(pyridin-3-ylmethyl)thiazole-5-carboxamide] | 151 to 152 °C
Cc1nc(N2CCN(Cc3ccc(Cl)cc3)C2=O)sc1C(=O)NCc1cccnc1 [Example 9.28, 2-(3-(4-chlorobenzyl)-2-oxoimidazolidin-1-yl)-4-methyl-N-(pyridin-3-ylmethyl)thiazole-5-carboxamide] | 178 to 179 °C
Cc1nc(N2CCN(Cc3ccc(F)cc3)C2=O)sc1C(=O)NCCN1CCCC1 [Example 8.4, 2-(3-(4-fluorobenzyl)-2-oxoimidazolidin-1-yl)-4-methyl-N-(2-(pyrrolidin-1-yl)ethyl)thiazole-5-carboxamide] | 183 to 184 °C
Cc1nc(-n2cnn(CCO)c2=O)sc1C(=O)NCc1cccnc1 [Example 19.9, 2-(1-(2-hydroxyethyl)-5-oxo-1H-1,2,4-triazol-4(5H)-yl)-4-methyl-N-(pyridin-3-ylmethyl)thiazole-5-carboxamide] | 201 to 202 °C
Cc1ncc(CNC(=O)c2sc(-n3cnn(Cc4ccc(F)cc4)c3=O)nc2C)s1 [Example 21.11, 2-(1-(4-fluorobenzyl)-5-oxo-1H-1,2,4-triazol-4(5H)-yl)-4-methyl-N-((2-methylthiazol-5-yl)methyl)thiazole-5-carboxamide] | 176 to 177 °C
Cc1cc(-n2cnn(CCC3CC3)c2=O)sc1C(=O)NCc1cccnc1 [Example 31.2, 5-(1-(2-cyclopropylethyl)-5-oxo-1H-1,2,4-triazol-4(5H)-yl)-3-methyl-N-(pyridin-3-ylmethyl)thiophene-2-carboxamide] | 148 to 150 °C
CC(=O)c1sc(N2CCN(Cc3ccc(C(F)(F)F)cc3)C2=O)nc1C [Example 5.10, 1-(5-acetyl-4-methylthiazol-2-yl)-3-(4-(trifluoromethyl)benzyl)imidazolidin-2-one] | 141 to 142 °C

SMILES | melting point
Cc1nc(N2CCN(Cc3ccccc3)C2=O)sc1C(=O)NCc1cc(F)cc(F)c1 [Example 9.3, 2-(3-benzyl-2-oxoimidazolidin-1-yl)-N-(3,5-difluorobenzyl)-4-methylthiazole-5-carboxamide] | 208 to 209 °C
Cc1nc(N2CCN(C(=O)c3ccc(F)cc3)C2=O)sc1C(=O)NCc1ccccc1 [Example 34, N-benzyl-2-(3-(4-fluorobenzoyl)-2-oxoimidazolidin-1-yl)-4-methylthiazole-5-carboxamide] | 130 to 132 °C
Cc1nc(N2CCN(Cc3ccc(F)cc3)C2=O)sc1C(=O)NCc1ncco1 [Example 32.11, 2-(3-(4-fluorobenzyl)-2-oxoimidazolidin-1-yl)-4-methyl-N-(oxazol-2-ylmethyl)thiazole-5-carboxamide] | 187 to 189 °C
Cc1cc(N2CCN(CCc3ccccc3)C2=O)sc1C(=O)NCc1cccnc1 [Example 15.4, 3-methyl-5-(2-oxo-3-phenethylimidazolidin-1-yl)-N-(pyridin-3-ylmethyl)thiophene-2-carboxamide] | 95 to 97 °C
COC(=O)c1cccc(CN2CCN(c3nc(C)c(C(=O)NCc4ccccc4)s3)C2=O)c1 [Example 23.9, methyl 3-((3-(5-(benzylcarbamoyl)-4-methylthiazol-2-yl)-2-oxoimidazolidin-1-yl)methyl)benzoate] | 49 to 51 °C
Cc1nc(N2C(=O)CN(c3ccc(F)cc3)C2=O)sc1C(=O)NCc1ccccc1 [Example 2, N-benzyl-2-(3-(4-fluorophenyl)-2,5-dioxoimidazolidin-1-yl)-4-methylthiazole-5-carboxamide] | 217 to 219 °C
Cc1nc(N2CCN(CCC3CC3)C2=O)sc1C(=O)NCc1cccnc1 [Example 9.26, 2-(3-(2-cyclopropylethyl)-2-oxoimidazolidin-1-yl)-4-methyl-N-(pyridin-3-ylmethyl)thiazole-5-carboxamide] | 146 to 147 °C
Cc1nc(N2CCN(CC3CC3)C2=O)sc1C(=O)NCc1ccccc1 [Example 9.14, N-benzyl-2-(3-(cyclopropylmethyl)-2-oxoimidazolidin-1-yl)-4-methylthiazole-5-carboxamide] | 142 to 143 °C
COC(=O)c1cnc(N2CCN(CC3CC3)C2=O)s1 [Example 24, methyl 2-(3-(cyclopropylmethyl)-2-oxoimidazolidin-1-yl)thiazole-5-carboxylate] | 124 to 126 °C
Cc1nc(-n2cnn(Cc3c(C)noc3C)c2=O)sc1C(=O)NCc1cccnc1 [Example 19.7, 2-(1-((3,5-dimethylisoxazol-4-yl)methyl)-5-oxo-1H-1,2,4-triazol-4(5H)-yl)-4-methyl-N-(pyridin-3-ylmethyl)thiazole-5-carboxamide] | 233 to 234 °C
CCNC(=O)c1sc(N2CCN(Cc3ccc(OC(F)(F)F)cc3)C2=O)nc1C [Example 8.2, N-ethyl-4-methyl-2-(2-oxo-3-(4-(trifluoromethoxy)benzyl)imidazolidin-1-yl)thiazole-5-carboxamide] | 218 to 219 °C
Cc1nc(N2CCN(Cc3cccc(C(=O)O)c3)C2=O)sc1C(=O)NCc1ccccc1 [Example 25.3, 3-((3-(5-(benzylcarbamoyl)-4-methylthiazol-2-yl)-2-oxoimidazolidin-1-yl)methyl)benzoic acid] | 143 to 145 °C
Cc1nc(N2CCN(Cc3ccncc3)C2=O)sc1C(=O)NCc1cccnc1 [Example 33, 4-methyl-2-(2-oxo-3-(pyridin-4-ylmethyl)imidazolidin-1-yl)-N-(pyridin-3-ylmethyl)thiazole-5-carboxamide] | 233 to 235 °C
Cc1nc(N2CCN(Cc3ccc(C(F)(F)F)cc3)C2=O)sc1CO [Example 41, 1-(5-(hydroxymethyl)-4-methylthiazol-2-yl)-3-(4-(trifluoromethyl)benzyl)imidazolidin-2-one] | 153 to 154 °C
Cc1nc(N2CCN(CCc3ccccc3)C2=O)sc1C(=O)NCc1ccccc1 [Example 9.11, N-benzyl-4-methyl-2-(2-oxo-3-phenethylimidazolidin-1-yl)thiazole-5-carboxamide] | 156 to 157 °C
Cc1cc(-n2cnn(Cc3ccccc3)c2=O)sc1C(=O)NCc1cccnc1 [Example 31.1, 5-(1-benzyl-5-oxo-1H-1,2,4-triazol-4(5H)-yl)-3-methyl-N-(pyridin-3-ylmethyl)thiophene-2-carboxamide] | 180 to 181 °C
Cc1nc(N2CCN(Cc3ccc(C#N)cc3)C2=O)sc1C(=O)NCc1ccccc1 [Example 23, N-benzyl-2-(3-(4-cyanobenzyl)-2-oxoimidazolidin-1-yl)-4-methylthiazole-5-carboxamide] | 176 to 178 °C
Cc1nc(-n2cn[nH]c2=O)sc1C(=O)NCc1cccnc1 [Example 21.7, 4-methyl-2-(5-oxo-1H-1,2,4-triazol-4(5H)-yl)-N-(pyridin-3-ylmethyl)thiazole-5-carboxamide] | 278 to 279 °C
